ChEMBL document CHEMBL1137623, “Synthesis and in-vitro biological activity of macrocyclic urea Chk1 inhibitors” (Bioorg Med Chem Lett, 2007)

What was measured:
[1] = molecular target: T1, Serine/threonine-protein kinase Chk1 (Homo sapiens, UniProt O14757); experiment: Inhibition of Chk1 enzyme by radiometric assay
T1 sequence (O14757 whole entry): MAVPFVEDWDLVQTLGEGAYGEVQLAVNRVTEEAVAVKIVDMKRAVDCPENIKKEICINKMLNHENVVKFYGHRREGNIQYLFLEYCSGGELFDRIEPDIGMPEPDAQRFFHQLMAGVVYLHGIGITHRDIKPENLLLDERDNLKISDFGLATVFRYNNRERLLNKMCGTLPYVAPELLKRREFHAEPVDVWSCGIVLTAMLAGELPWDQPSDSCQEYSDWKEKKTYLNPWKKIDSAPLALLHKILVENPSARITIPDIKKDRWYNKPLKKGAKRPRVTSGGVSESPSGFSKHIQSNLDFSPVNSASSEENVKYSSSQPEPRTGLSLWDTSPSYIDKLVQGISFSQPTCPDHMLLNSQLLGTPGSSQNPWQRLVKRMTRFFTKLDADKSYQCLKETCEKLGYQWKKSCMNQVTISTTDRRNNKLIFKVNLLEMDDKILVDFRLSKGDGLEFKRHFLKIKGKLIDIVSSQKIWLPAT

HeLa = experiment: Antiproliferative activity against human HeLa cells by MTS assay; format: functional, cell-based
NCI-H1299 = experiment: Cell cycle arrest in human NCI-H1299 cells assessed as accumulation at G2/M phase by FACS; format: functional, cell-based

Compound | IC50 [1] [nM] | EC50 (HeLa) [µM] | EC50 (NCI-H1299) [µM] | IC50 (NCI-H1299) [µM]
N#Cc1ncc2nc1OCCCCCOc1ccc(Cl)cc1NC(=O)N2 | 11 | 57.6 | > 10 | 
CCOc1ccc2c(c1)NC(=O)Nc1cnc(C#N)c(n1)OCCCCCO2 | 55 | > 59.3 | > 10 | 
N#Cc1ncc2nc1OC/C=C\COc1ccc(OCCCN3CCOCC3)cc1NC(=O)N2 | 4 | > 59.3 |  | 
N#Cc1ncc2nc1OC/C=C\COc1ccc(OCCCCN3CCOCC3)cc1NC(=O)N2 | 4 | 7.56 |  | 
N#Cc1ncc2nc1OCC/C=C\COc1ccc(Br)cc1NC(=O)N2 | 12 | 29.4 | > 10 | 
N#Cc1ncc2nc1OCCCCCOc1ccc(OCCCN3CCOCC3)cc1NC(=O)N2 | 7 | 4.03 | > 10 | 
N#Cc1ncc2nc1OC/C=C\COc1ccc(OCCCCCN3CCCOC3)cc1NC(=O)N2 | 2 | > 59.3 |  | 
N#Cc1ncc2nc1OCCCCOc1ccc(OCCCN3CCOCC3)cc1NC(=O)N2 | 2 | > 59.3 |  | 
N#Cc1ncc2nc1OCCCCOc1ccc(OCCCCN3CCOCC3)cc1NC(=O)N2 | 4 | > 59.3 |  | 
N#Cc1ncc2nc1OCCCCOc1ccc(OCCCCCN3CCCOC3)cc1NC(=O)N2 | 3 | > 59.3 |  | 
N#Cc1ncc2nc1OCCCCCOc1ccc(OCCCCN3CCOCC3)cc1NC(=O)N2 | 3 |  |  | 
Cc1ccc2c(c1)NC(=O)Nc1cnc(C#N)c(n1)OCC/C=C\CO2 | 15 | > 59.3 | > 10 | 
N#Cc1ncc2nc1OCC/C=C\COc1ccc(CCOC3CCCCO3)cc1NC(=O)N2 (stereo not drawn) | 108 |  | > 10 | 
N#Cc1ncc2nc1OCCCCCOc1ccc(OCCCCCN3CCOCC3)cc1NC(=O)N2 | 3 | 8.87 | > 10 | 
CC(=O)Nc1ccc2c(c1)NC(=O)Nc1cnc(C#N)c(n1)OCCCCCO2 | 8 |  |  | 
N#Cc1ncc2nc1OCCCCCOc1ccc(Br)cc1NC(=O)N2 | 12 | 52.8 | > 10 | 
N#Cc1ncc2nc1OCCCCCOc1ccccc1NC(=O)N2 | 16 | > 59.3 | > 10 | 
N#Cc1ncc2nc1OCC/C=C\COc1ccc(CCO)cc1NC(=O)N2 | 97 |  | > 10 | 
Cc1ccc2c(c1)NC(=O)Nc1cnc(C#N)c(n1)OCCCCCO2 | 8 |  |  | 
N#Cc1ncc2nc1OCCCCCOc1ccc(CCO)cc1NC(=O)N2 | 39 | > 59.3 | > 10 | 
N#Cc1ncc2nc1OCC/C=C\COc1ccc(CCCOC3CCCCO3)cc1NC(=O)N2 (stereo not drawn) | 91 | > 59.3 | > 10 | 

Compound | IC50 [1] [nM] | EC50 (HeLa) [µM] | EC50 (NCI-H1299) [µM] | IC50 (NCI-H1299) [µM]
N#Cc1ncc2nc1OCCCCCOc1ccc(CCCO)cc1NC(=O)N2 | 24 | > 59.3 | > 10 | 
N#Cc1ncc2nc1OCC/C=C\COc1ccc(CCCO)cc1NC(=O)N2 | 69 | > 59.3 | > 10 | 
N#Cc1ncc2nc1OCC/C=C\COc1ccc(OCCOC3CCCCO3)cc1NC(=O)N2 (stereo not drawn) | 19 | 30.9 | > 10 | 
N#Cc1ncc2nc1OCC/C=C\COc1ccc(O)cc1NC(=O)N2 | 34 | > 59.3 | > 10 | 
COc1ccc2c(c1)NC(=O)Nc1cnc(C#N)c(n1)OCC/C=C\CO2 | 37 | > 59.3 | > 10 | 
N#Cc1ncc2nc1OCC/C=C\COc1ccc(OCCO)cc1NC(=O)N2 | 13 | > 59.3 | > 10 | 
CCOc1ccc2c(c1)NC(=O)Nc1cnc(C#N)c(n1)OCC/C=C\CO2 | 19 | > 59.3 | > 10 | 
CC(C)(C)[Si](Oc1ccc2c(c1)NC(=O)Nc1cnc(C#N)c(n1)OCC/C=C\CO2)(c1ccccc1)c1ccccc1 | > 10000 |  |  | 
N#Cc1ncc2nc1OCC/C=C\COc1ccc(OCCCCN3CCOCC3)cc1NC(=O)N2 | 6 |  |  | 
N#Cc1ncc2nc1OCC/C=C\COc1ccc(OCCCCCN3CCOCC3)cc1NC(=O)N2 | 5 | 5.27 | > 10 | 
COc1ccc2c(c1)NC(=O)Nc1cnc(C#N)c(n1)OCCCCCO2 | 25 | > 59.3 | > 10 | 
CCOc1ccc(OCC)c(NC(=O)Nc2cnc(C#N)cn2)c1 | 31 |  |  | 
COc1ccc(NC(C)=O)cc1NC(=O)Nc1cnc(C#N)cn1 | 22 |  |  | 
N#Cc1ncc2nc1OCCCCOc1ccc(Cl)cc1NC(=O)N2 |  | > 59.3 | > 10 | 
CN(C)CCOc1ccc2c(c1)NC(=O)Nc1cnc(C#N)c(n1)OCC/C=C\CO2 | 15 | 30.4 | > 10 | 
N#Cc1ncc2nc1OCC/C=C\COc1ccccc1NC(=O)N2 | 12 | 40 | > 10 | 
N#Cc1ncc2nc1OCC/C=C\COc1ccc(OCCCN3CCOCC3)cc1NC(=O)N2 | 5 | > 59.3 | > 10 | 
CC(=O)Nc1ccc2c(c1)NC(=O)Nc1cnc(C#N)c(n1)OCC/C=C\CO2 | 16 | 39.9 |  | > 10
N#Cc1ncc2nc1OCCCCCOc1ccc(OCCO)cc1NC(=O)N2 | 11 | > 59.3 | > 10 | 
N#Cc1ncc2nc1OCC/C=C\COc1ccc(Cl)cc1NC(=O)N2 | 10 | 11.9 | > 10 | 
N#Cc1ncc2nc1OC/C=C\COc1ccc(Cl)cc1NC(=O)N2 | 5 | > 59.3 | > 10 | 
